Here are results for two compounds from paper PMC8496776, “Staphylococcus aureus Lipase 3 (SAL3) is a surface-associated lipase that hydrolyzes short chain fatty acids” (PLoS ONE, 2021).

Experiment [1] deals with T1, rSAL3 (Staphylococcus aureus lipase 3, SAL3) (Staphylococcus aureus, UniProt A0A0H2XHH9).
T1 construct: gene SAUSA300_0641
Put plainly: LC-MS/MS loss of OAG without oleic acid release; also protein lipid overlay binding. Type of experiment: biochemical. Conditions: 2 h, 37 C, PBS; 2 ug/mL OAG; hydrolysis at the sn-2 acetate inferred.

For experiment [2], the target named is T1, rSAL3 (Staphylococcus aureus lipase 3, SAL3). Description: p-nitrophenol release at […] nm. Conditions: 2 mM ester, 100 mM Tris HCl, 100 mM NaCl, pH 7, 37 C. Type of experiment: biochemical.

T1 sequence (A0A0H2XHH9 entry or part of it): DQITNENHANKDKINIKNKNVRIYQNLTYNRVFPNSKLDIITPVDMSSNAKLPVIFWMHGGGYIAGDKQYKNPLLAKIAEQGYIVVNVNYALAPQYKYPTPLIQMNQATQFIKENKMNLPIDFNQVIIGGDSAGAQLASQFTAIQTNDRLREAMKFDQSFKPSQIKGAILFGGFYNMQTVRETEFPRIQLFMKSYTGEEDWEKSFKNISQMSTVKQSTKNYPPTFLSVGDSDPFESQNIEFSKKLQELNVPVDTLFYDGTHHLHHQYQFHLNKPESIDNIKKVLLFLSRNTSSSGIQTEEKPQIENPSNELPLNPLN

`CCCCCCCC/C=C\CCCCCCCC(=O)OCC(CO)OC(C)=O` (centres unmarked) [1-oleoyl 2-acetyl glycerol]: the “LC-MS/MS loss of OAG without oleic acid release; also protein lipid overlay bind” value in experiment [1] was “marked reduction in the substrate only in reactions containing WT rSAL3”.

In the case of `CCCC(=O)Oc1ccc([N+](=O)[O-])cc1` [pNP-C4, paranitrophenol butyrate], in experiment [2], the specific activity result is recorded as “Alanine substitution mutations introduced in rSAL3MUT abolished the activity against pNP-C4”.
